# According to ChEMBL document CHEMBL6071134, “Novel bibenzyl compound Ae exhibits anti-agiogenic activity in HUVECs in vitro and zebrafish in vivo” (Bioorg Med Chem, 2024):
# Activity calls are given as the source filed them. No cut-off for these calls is given here.
# Key:
# Danio rerio [1] = organism: Danio rerio; assay: Antiangiogenic activity against transgenic zebrafish model assessed as inhibition of inter-segmental blood vessels of embryo measured after 72 hrs post fertilization by fluorescence microscopy based analysis; type: functional, organism-based; conditions: dose 0.625-2.5 µM
# Danio rerio [2] = organism: Danio rerio; assay: Antiangiogenic activity against transgenic zebrafish model assessed as inhibition of inter-segmental blood vessels of embryo at 0.625 uM measured after 72 hrs post fertilization by fluorescence microscopy based analysis; type: functional, organism-based
# Danio rerio [3] = organism: Danio rerio; assay: Antiangiogenic activity against transgenic zebrafish model assessed as inhibition of inter-segmental blood vessels of embryo at 2.5 uM measured after 72 hrs post fertilization by fluorescence microscopy based analysis relative to control; type: functional; set-up: scale not given: the % may be the effect or the level left
# [4] = Toxicity in transgenic zebrafish at 2.5 uM measured after 72 hrs; set-up: species or system Danio rerio; conditions: in vivo
# [5] = (§1) Antiproliferative activity against HUVEC cells measured after 48 hrs by CCK-8 method; type: toxicity, cell-based; conditions: human, HUVEC cells
# HUVEC [6] = assay: as §1; type: toxicity, cell-based; conditions: human, huvec, 48 h; dose 0.062-16 µM
# HUVEC [7] = assay: Inhibition of cell migration in HUVEC cells at 0.25 uM by crystal violet staining based Boyden chamber assay; type: functional; conditions: Homo sapiens
# HUVEC [8] = assay: Inhibition of cell migration in HUVEC cells at 0.25 uM by crystal violet staining based Boyden chamber assay relative to control; type: functional; conditions: Homo sapiens
# HUVEC [9] = assay: Inhibition of cell migration in HUVEC cells at 0.5 uM by crystal violet staining based Boyden chamber assay relative to control; type: functional; conditions: Homo sapiens
# HUVEC [10] = assay: Inhibition of cell migration in HUVEC cells at 1 uM by crystal violet staining based Boyden chamber assay relative to control; type: functional; conditions: Homo sapiens
# HUVEC [11] = assay: Inhibition of cell migration in HUVEC cells at 2 uM by crystal violet staining based Boyden chamber assay relative to control; type: functional; conditions: Homo sapiens
# HUVEC [12] = assay: Inhibition of cell migration in HUVEC cells assessed as […] in wound closure area at 0.25 to 2 uM incubated for 12 hrs by crystal violet staining based wound healing assay relative to DMSO; type: functional; conditions: Homo sapiens, dose 0.25-2 µM
# HUVEC [13] = assay: Inhibition of cell migration in HUVEC cells incubated for 12 hrs by crystal violet staining based wound healing assay; type: functional; conditions: Homo sapiens, dose 0.25-2 µM
# HUVEC [14] = assay: Inhibition of cell invasion in HUVEC cells measured after 24 hrs by crystal violet staining based inverted fluorescence microscopy analysis; type: functional; conditions: Homo sapiens, dose 0.25-2 µM
# HUVEC [15] = assay: Inhibition of cell invasion in HUVEC cells assessed as reduction in number of invading cells at 2 uM measured after 24 hrs by crystal violet staining based inverted fluorescence microscopy analysis relative to control; type: functional; conditions: Homo sapiens
# HUVEC [16] = assay: Anti-angiogenesis activity in HUVEC cells assessed as reduction in total tube length at 1 uM incubated for 12 hrs by inverted microscopic analysis relative to control; type: functional, Homo sapiens; set-up: scale not given: the % may be the effect or the level left
# HUVEC [17] = assay: Anti-angiogenesis activity in HUVEC cells assessed as reduction in total tube length at 2 uM incubated for 12 hrs by inverted microscopic analysis relative to control; type: functional, Homo sapiens; set-up: scale not given: the % may be the effect or the level left
# HUVEC [18] = assay: Anti-angiogenesis activity in HUVEC cells assessed as appearance of broken tubule network structure at 0.25 to 2 uM incubated for 12 hrs by inverted microscopic analysis; type: functional, cell-based; conditions: Homo sapiens, dose 0.25-2 µM
# HUVEC [19] = assay: Anti-angiogenesis activity in HUVEC cells assessed as appearance of incomplete tubule network structure at 0.25 to 2 uM incubated for 12 hrs by inverted microscopic analysis; type: functional, cell-based; conditions: Homo sapiens, dose 0.25-2 µM
# HUVEC [20] = assay: Anti-angiogenesis activity in HUVEC cells assessed as appearance of few branches in tubule network structure at 0.25 to 2 uM incubated for 12 hrs by inverted microscopic analysis; type: functional, cell-based; conditions: Homo sapiens, dose 0.25-2 µM
# HUVEC [21] = assay: Anti-angiogenesis activity in HUVEC cells assessed as appearance of shorter tubule length at 0.25 to 2 uM incubated for 12 hrs by inverted microscopic analysis; type: functional, cell-based; conditions: Homo sapiens, dose 0.25-2 µM
# Danio rerio [22] = organism: Danio rerio; assay: Anti-angiogenesis activity in zebrafish embryo assessed as downregulation of ang-2 mRNA expression at 0.5 to 5 uM measured after 24 hrs by qRT-PCR analysis; type: functional, organism-based; conditions: dose 0.5-5 µM
# Danio rerio [23] = organism: Danio rerio; assay: Anti-angiogenesis activity in zebrafish embryo assessed as downregulation of tek mRNA expression at 0.5 to 5 uM measured after 24 hrs by qRT-PCR analysis; type: functional, organism-based; conditions: dose 0.5-5 µM
# Danio rerio [24] = organism: Danio rerio; assay: Anti-angiogenesis activity in zebrafish embryo assessed as downregulation of kdr mRNA expression at 0.5 to 5 uM measured after 24 hrs by qRT-PCR analysis; type: functional, organism-based; conditions: dose 0.5-5 µM
# Danio rerio [25] = organism: Danio rerio; assay: Anti-angiogenesis activity in zebrafish embryo assessed as downregulation of kdr1 mRNA expression at 0.5 to 5 uM measured after 24 hrs by qRT-PCR analysis; type: functional, organism-based; conditions: dose 0.5-5 µM
# Danio rerio [26] = organism: Danio rerio; assay: Anti-angiogenesis activity in zebrafish embryo assessed as effect on […]-mRNA expression at 0.5 to 5 uM measured after 24 hrs by qRT-PCR analysis; type: functional, organism-based; conditions: dose 0.5-5 µM
# Danio rerio [27] = organism: Danio rerio; assay: Anti-angiogenesis activity in zebrafish embryo assessed as effect on flt-1 mRNA expression at 0.5 to 5 uM measured after 24 hrs by qRT-PCR analysis; type: functional, organism-based; conditions: dose 0.5-5 µM
# Danio rerio [28] = organism: Danio rerio; assay: Anti-angiogenesis activity in zebrafish embryo assessed as effect on fgf2 mRNA expression at 0.5 to 5 uM measured after 24 hrs by qRT-PCR analysis; type: functional, organism-based; conditions: dose 0.5-5 µM
# Danio rerio [29] = organism: Danio rerio; assay: Anti-angiogenesis activity in zebrafish embryo assessed as effect on fgfr2 mRNA expression at 0.5 to 5 uM measured after 24 hrs by qRT-PCR analysis; type: functional, organism-based; conditions: dose 0.5-5 µM
compound,measurement,setting,value
COc1cc(CCc2ccccc2Cl)cc(OC)c1O,Activity,Danio rerio [1],Dose-Dependent Effect
same,Activity,Danio rerio [2],Active
same,Activity,Danio rerio [3],100%
same,Activity,[4],Toxic
same,IC50 at 48 h,[5],1700 nM
same,Activity,HUVEC [6],Dose-Dependent Effect
same,inhibition,HUVEC [7],Active
same,inhibition at 0.25 µM,HUVEC [8],~37.2%
same,inhibition at 0.5 µM,HUVEC [9],~64.4%
same,inhibition at 1 µM,HUVEC [10],~71.3%
same,inhibition at 2 µM,HUVEC [11],~78.5%
same,inhibition,HUVEC [12],Active
same,inhibition,HUVEC [13],Dose-Dependent Effect
same,inhibition,HUVEC [14],Dose-Dependent Effect
same,inhibition at 2 µM,HUVEC [15],17.4%
same,Activity,HUVEC [16],38.7%
same,Activity,HUVEC [17],22.6%
same,Activity,HUVEC [18],Active
same,Activity,HUVEC [19],Active
same,Activity,HUVEC [20],Active
same,Activity,HUVEC [21],Active
same,Activity,Danio rerio [22],Active
same,Activity,Danio rerio [23],Active
same,Activity,Danio rerio [24],Active
same,Activity,Danio rerio [25],Active
same,Activity,Danio rerio [26],inactive
same,Activity,Danio rerio [27],inactive
same,Activity,Danio rerio [28],inactive
same,Activity,Danio rerio [29],inactive
